Results as given in patent US10696898B2, “Reverse photochromic compound” (FUJIFILM Wako Pure Chemical Corporation, priority 2017, dated 2020).

Legend:
[1] = Evaluation of solvent dependence of reverse photochromic characteristics of compound 8 (Experiment Example 5); type: physicochemical
Protocol: The solvent dependence of the reverse photochromic characteristics of the compound 8 was evaluated in the following manner.
Various solutions of the compound 8 obtained in Example 2 were prepared using the following methods (1-1) to (1-7).
First, 1.2 mg (8.7×10^−7 mol) of the compound 8 was weighed in a vial bottle (glass bottle), and […] of methanol was added thereto to prepare a solution having a concentration of 1.0×10^−4 mol/L. The obtained solution was poured into another vial bottle (glass bottle) and further diluted with methanol to prepare a methanol solution containing the compound 8 with a concentration of […].
First, 1.2 mg (8.7×10^−7 mol) of the compound 8 was weighed in a vial bottle (glass bottle), and 9 mL of toluene was added thereto to prepare a solution having a concentration of 9.3×10^−5 mol/L. The obtained solution was poured into another vial bottle (glass bottle) and further diluted with toluene to prepare a toluene solution containing the compound 8 with a concentration of 1.9×10^−5 mol/L.
First, 1.2 mg (8.7×10^−7 mol) of the compound 8 was weighed in a vial bottle (glass bottle), and 10 mL of acetonitrile was added thereto to prepare a solution having a concentration of 8.7×10^−5 mol/L. The obtained solution was poured into another vial bottle (glass bottle) and further diluted with acetonitrile to prepare an acetonitrile solution containing the compound 8 with a concentration of 2.2×10^−5 mol/L.
First, 1.1 mg […] of the compound 8 was weighed in a vial bottle (glass bottle), and 10 mL of chloroform was added thereto to prepare a solution having a concentration of 8.0×10^−5 mol/L. The obtained solution was poured into another vial bottle (glass bottle) and further diluted with chloroform to prepare a chloroform solution containing the compound 8 with a concentration of 1.8×10^−5 mol/L.
First, 1.5 mg […] of the compound 8 was weighed in a vial bottle (glass bottle), and 10 mL of o-dichlorobenzene was added thereto to prepare a solution having a concentration of 1.1×10^−4 mol/L. The obtained solution was poured into another vial bottle (glass bottle) and further diluted with o-dichlorobenzene to prepare an o-dichlorobenzene solution containing the compound 8 with a concentration of 2.2×10^−5 mol/L.
First, 1.3 mg (9.7×10^−7 mol) of the compound 8 was weighed in a vial bottle (glass bottle), and 10 mL of 2-propanol was added thereto to prepare a saturated solution. The supernatant of the obtained saturated solution was poured into another vial bottle (glass bottle) and further diluted with 2-propanol by three times to prepare a 2-propanol solution containing the compound 8.
First, 1.4 mg […] of the compound 8 was weighed in a vial bottle (glass bottle), and 10 mL of chlorobenzene was added thereto to prepare a solution having a concentration of 1.0×10^−4 mol/L. The obtained solution was poured into another vial bottle (glass bottle) and further diluted with chlorobenzene to prepare a chlorobenzene solution containing the compound 8 with a concentration of 2.0×10^−5 mol/L.
Various solutions containing the compound 8 obtained in the preparation (1) were put into a quartz cell having an optical path length of 1 cm together with a stirring bar, the solutions were irradiated with light while being stirred for 5 minutes under a condition of an irradiation intensity of 1 SUN (AM 1.5, 1000 W/m^2) using a solar simulator (product name: LAX-C100, manufactured by Asahi Spectra Co., Ltd.), and the absorbance of each solution at the maximum absorption wavelength was measured using a spectrophotometer (product name: V-670, manufactured by Jasco Corporation). Thereafter, the quartz cell was stored in a dark place, the absorbance at every fixed interval time was measured, and the temporal change of the absorbance of each solution at the maximum absorption wavelength was confirmed. […]

[2] = Evaluation of solubility and compatibility of compound 8 (Experiment Example 8); type: physicochemical; conditions: 20° C.
Protocol: The solubility and the compatibility of the compound 8 obtained in Example 2 were evaluated in the following manner.
In other words, 100 mg of the compound 8 was weighed in a glass container (manufactured by NICHIDEN RIKA GLASS CO., LTD.), 10 mg of various organic solvents were added thereto in a state in which the temperature thereof was maintained to 20° C., and the solution was stirred for 10 minutes. In a case where the solid content remained, the operation of adding 10 mg of the organic solvents and stirring the solution for 10 minutes was repeated, and the amount (A mg) of the organic solvents to be used at the time of complete dissolution of the compound 8 was measured. The solubility (%) was acquired based on the value of A mg using the following equation. Solubility (%)=100 mg/(100 mg+A mg)×100

SMILES: C=C(C)C(=O)OCCOC(=O)c1ccccc1-c1c2ccc(=[N+](CC)CC)cc-2oc2c1CCC/C2=C\c1ccc2c(c1)c1ccccc1n2CC [compound 8]
- maximum absorption wavelength ([1]; 2-propanol solution): 639 nm
- maximum absorption wavelength ([1]; acetonitrile solution): 626 nm
- maximum absorption wavelength ([1]; chlorobenzene solution): 659 nm
- maximum absorption wavelength ([1]; chloroform solution): 650 nm
- maximum absorption wavelength ([1]; methanol solution): 632 nm
- maximum absorption wavelength ([1]; o-dichlorobenzene solution): 659 nm
- maximum absorption wavelength ([1]; toluene solution): 653 nm
- Solubility (%) ([2]; Epoxy resin (jER ®)): 11%
- Solubility (%) ([2]; organic solvent: 1-Methoxy-2-propanol (PGME)): 38%
- Solubility (%) ([2]; organic solvent: Dibutyl sebacate (DBS)): 20%
- Solubility (%) ([2]; organic solvent: Ethyl acetate (AcOEt)): 50%
- Solubility (%) ([2]; organic solvent: Methyl ethyl ketone (MEK)): 50%
- Solubility (%) ([2]; organic solvent: Methyl methacrylate (MMA)): 50%
- Solubility (%) ([2]; organic solvent: Toluene, 100 mg/(100 mg+A mg)×100): 50%
- Solubility (%) ([2]; organic solvent: Triethyl phosphate (TEP)): 31%
